Reference: patent US20080026996A1, “Selective Vpac2 Receptor Reptide Agonists” (ELI LILLY AND COMPANY, priority 2004, published 2008)
Where a SMILES comes first, the peptide text is derived from it. Where no end group is shown, it is not given here. [ ]: non-standard residue; d: D form. The star is where a group is joined. Hexanoyl = CCCCCC(=O)*; Aib = CC(C)(N)C(=O)O

Experiments:
human PAC1 = biological target: T1, human PAC1 (Homo sapiens, UniProt P41586); assay: Filter binding assay, membranes of cells transiently transfected with human PAC1, 125I-labeled PACAP-27 tracer (Table 2); design: expressed in transfected cells; details: read-out: Human PAC1 Receptor Binding
T1 sequence (P41586 21-468): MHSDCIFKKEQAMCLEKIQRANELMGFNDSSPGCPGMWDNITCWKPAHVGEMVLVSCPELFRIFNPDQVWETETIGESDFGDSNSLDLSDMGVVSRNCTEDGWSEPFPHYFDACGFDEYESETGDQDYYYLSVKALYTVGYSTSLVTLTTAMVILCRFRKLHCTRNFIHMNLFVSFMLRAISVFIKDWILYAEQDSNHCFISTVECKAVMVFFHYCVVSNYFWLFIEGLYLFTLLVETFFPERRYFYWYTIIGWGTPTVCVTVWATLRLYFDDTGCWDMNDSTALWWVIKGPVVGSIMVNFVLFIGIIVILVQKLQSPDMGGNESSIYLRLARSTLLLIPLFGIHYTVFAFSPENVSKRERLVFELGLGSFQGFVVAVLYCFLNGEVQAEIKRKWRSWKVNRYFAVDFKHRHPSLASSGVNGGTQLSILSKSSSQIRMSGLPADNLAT
Summary of the method: (§1)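 Membranes 2.5 μg/well; tracer ~40000 cpm; buffer 25 mM HEPES pH 7.4, 0.5% protease-free BSA; 1 h incubation, shaking. Glass-fibre filtration (0.5% polyethyleneamine presoak, 0.2% BSA block), 3× HEPES wash, dry 1 h at 60° C, scintillation count.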

human VPAC2 [1] = biological target: T2, human VPAC2 (Homo sapiens, UniProt P41587); assay: Alpha screen cAMP in vitro potency, human VPAC2 receptor; format: cell-based; details: cAMP generation; single result from two analyses performed in a single run; read-out: Human VPAC2 Receptor: Alpha Screen EC50
T2 construct: expressed in transfected cells
T2 sequence (P41587 24-438): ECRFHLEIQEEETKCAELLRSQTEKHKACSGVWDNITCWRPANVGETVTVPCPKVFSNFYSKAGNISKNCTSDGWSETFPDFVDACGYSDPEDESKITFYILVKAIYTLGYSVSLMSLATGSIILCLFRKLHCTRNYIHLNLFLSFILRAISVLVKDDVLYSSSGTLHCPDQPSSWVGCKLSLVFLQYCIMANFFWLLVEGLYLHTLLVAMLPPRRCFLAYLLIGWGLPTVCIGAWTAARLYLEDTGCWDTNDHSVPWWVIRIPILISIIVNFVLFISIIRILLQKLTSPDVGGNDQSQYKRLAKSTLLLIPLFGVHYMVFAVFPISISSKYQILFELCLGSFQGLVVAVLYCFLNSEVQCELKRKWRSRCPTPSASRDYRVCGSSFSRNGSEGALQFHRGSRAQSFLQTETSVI
Summary of the method: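 Cells were detached with enzyme-free dissociation buffer, washed into stimulation buffer and used at 50,000 cells per data point. Stimuli and AlphaScreen acceptor beads were added for 60 minutes, then lysis buffer with donor beads for 60 to 120 minutes; the AlphaScreen signal reports intracellular cAMP.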

[2] = Rat serum stability studies (remaining active peptide by DiscoveRx cAMP on CHO-VPAC2 cells); format: in vitro ADME
Summary of the method: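 EC50 from a DiscoveRx cAMP read-out on CHO-VPAC2 cells indexes how much peptide stays active after 18 h in rat serum at 37° C without aprotinin, against an aprotinin-protected 4° C aliquot.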

human VPAC2 [3] = biological target: T2, human VPAC2; assay: Filter binding assay, membranes of stable VPAC2 cell line, 125I-labeled VIP tracer (Table 2); details: read-out: Human VPAC2 Receptor Binding
Summary of the method: as §1

human VPAC1 = biological target: T3, human VPAC1 (Homo sapiens, UniProt P32241); assay: Filter binding assay, membranes of cells transiently transfected with human VPAC1, 125I-labeled VIP tracer (Table 2); design: expressed in transfected cells; details: read-out: Human VPAC1 Receptor Binding
T3 sequence (P32241 31-457): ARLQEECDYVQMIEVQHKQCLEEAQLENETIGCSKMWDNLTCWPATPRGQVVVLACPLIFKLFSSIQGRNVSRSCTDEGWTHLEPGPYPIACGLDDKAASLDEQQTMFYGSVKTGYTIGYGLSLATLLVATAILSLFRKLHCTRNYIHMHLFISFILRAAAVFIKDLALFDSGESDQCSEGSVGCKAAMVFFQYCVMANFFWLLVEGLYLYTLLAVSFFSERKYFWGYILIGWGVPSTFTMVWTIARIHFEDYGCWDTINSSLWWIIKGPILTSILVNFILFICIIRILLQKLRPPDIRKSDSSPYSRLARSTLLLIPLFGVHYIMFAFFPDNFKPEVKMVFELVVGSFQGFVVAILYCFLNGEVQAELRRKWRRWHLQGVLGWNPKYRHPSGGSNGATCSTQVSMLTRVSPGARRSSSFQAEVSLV
Summary of the method: as §1

Row | Compound | IC50 (human PAC1) [nM] | EC50 (human VPAC2 [1]) [nM] | Rat Serum Stability (estimated purity in % after 18 hours) [2] [%] | IC50 (human VPAC2 [3]) [nM] | IC50 (human VPAC1) [nM]
1 | Hexanoyl-HSDAVFTDNYTRLR[Aib]QVAALKYLQSIKNKRYGGPSSGAPPPS [Agonist P265] | > 25000 | 0.21 | 8.70 | 0.68 | > 3000
2 | Hexanoyl-HSDAVFTDNYTRLQKQVAAKQYLQSIKNKRYGGPSSGAPPPS [Agonist P253] | > 25000 | 0.46 | 1.27 | 1.78 | 2160
3 | Hexanoyl-HSDAVFTDNYTRLQKQVAAKKYLQSIKNKRYGGPSSGAPPPS [Agonist P172] | 500 | 0.29 | 5.95 | 3.58 | 412
4 | Hexanoyl-HSDAVFTDNYTRLRAQLAAQKYLQSIKNKRYGGPSSGAPPPS [Agonist P142] | 1190 | 0.15 | 0.51 | 0.58 | 364
5 | Hexanoyl-HSDALFTDNYTRLRKQVAAKKYLQSIKNKRYGGPSSGAPPPS [Agonist P289] | 324 | 0.16 | 0.04 | 0.38 | 260
6 | Hexanoyl-HSDAVFTDNYTRLQKQVAA[Aib]KYLQSIKNKRYGGPSSGAPPPS [Agonist P250] | > 25000 | 0.18 | 7.11 | 0.63 | 855
7 | CCCCCC(=O)N[C@@H](Cc1c[nH]cn1)C(=O)N[C@@H](CO)C(=O)N[C@@H](CC(=O)O)C(=O)N[C@@H](C)C(=O)N[C@H](C(=O)N[C@@H](Cc1ccccc1)C(=O)N[C@H](C(=O)N[C@@H](CC(=O)O)C(=O)N[C@@H](CC(N)=O)C(=O)N[C@@H](Cc1ccc(O)cc1)C(=O)N[C@H](C(=O)N[C@@H](CCCNC(=N)N)C(=O)N[C@@H](CC(C)C)C(=O)N[C@@H](CCCNC(=N)N)C(=O)NC(C)(C)C(=O)N[C@@H](CCC(N)=O)C(=O)N[C@H](C(=O)N[C@@H](C)C(=O)N[C@@H](C)C(=O)N[C@@H](CCCCN)C(=O)NC(C)(C)C(=O)N[C@@H](Cc1ccc(O)cc1)C(=O)N[C@@H](CC(C)C)C(=O)N[C@@H](CCC(N)=O)C(=O)N[C@@H](CO)C(=O)N[C@H](C(=O)N[C@@H](CCCCN)C(=O)N[C@@H](CCC(N)=O)C(=O)NCC(=O)NCC(=O)N1CCC[C@H]1C(=O)N[C@@H](CO)C(=O)N[C@@H](CO)C(=O)NCC(=O)N[C@@H](C)C(=O)N1CCC[C@H]1C(=O)N1CCC[C@H]1C(=O)N1CCC[C@H]1C(=O)N[C@@H](CO)C(=O)O)[C@@H](C)CC)C(C)C)[C@@H](C)O)[C@@H](C)O)C(C)C [Agonist P298] (Hexanoyl-HSDAVFTDNYTRLR[Aib]QVAAK[Aib]YLQSIKQGGPSSGAPPPS-OH; C-terminus assumed) | > 25000 | 0.5 | 30.97 | 8.2 | > 3000
8 | Hexanoyl-HSDAVFTDNYTRLRKQVAAWKYLQSIKNKRYGGPSSGAPPPS [Agonist P153] | 1130 | 0.11 | <0.16 | 0.7 | 181
9 | Hexanoyl-HGEGTFTDNYTRLRKQVAAKKYLQSIKNKRYGGPSSGAPPPS [Agonist P222] | 466 | 0.51 | 0.23 | 1.05 | 177
10 | Hexanoyl-HSDAVFTDNYTRLRKQLAAKKYLQSIKNKRYGGPSSGAPPPS [Agonist P290] | 209 | 0.22 | 0.11 | 0.27 | 221
11 | Hexanoyl-HVDAVFTDNYTRLRKQVAAKKYLQSIKNKRYGGPSSGAPPPS [Agonist P99] | 2060 | 0.14 | 0.61 | 1.72 | 394
12 | Hexanoyl-HSDAVFTDNYTRLRKQVAAKKY[Aib]QSIKNKRYGGPSSGAPPPS [Agonist P236] | 225 | 0.12 | 0.79 | 0.37 | 589
13 | Hexanoyl-HSDAVFTDNYTRLAKQVAAKKYLQSIKNKRYGGPSSGAPPPS [Agonist P173] | 756 | 0.25 | 1.04 | 0.55 | 1790
14 | Hexanoyl-HSDAVFTDNYTRLRKQVAAAKYLQSIKNKRYGGPSSGAPPPS [Agonist P181] | 522 | 0.13 | <0.53 | 0.29 | 325
15 | Hexanoyl-HSDAVFTDNYTRLRKQVAATKYLQSIKNKRYGGPSSGAPPPS [Agonist P152] | 672 | 0.17 | 0.06 | 0.37 | 514
16 | Hexanoyl-HSDAVFTDNYTRLRKQVAALKYLQSIKNKRYGGPSSGAPPPS [Agonist P151] | 720 | 0.07 | 0.35 | 0.72 | 204
17 | Hexanoyl-HSDAVFTDNYTRLRAQVAAQKYLQSIKNKRYGGPSSGAPPPS [Agonist P138] | 1110 | 0.45 | 0.48 | 1.01 | 5.28
18 | Hexanoyl-HSDAVFTKNYTRLRKQVAAKKYLQSIKNKRYGGPSSGAPPPS [Agonist P160] | 262 | 13.2 | <4.25 | 4.77 | 50.3
19 | Hexanoyl-HSDAVFTDNYTRLRKQVAAYKYLQSIKNKRYGGPSSGAPPPS [Agonist P147] | 464 | 0.13 | 0.07 | 0.24 | 107
20 | Hexanoyl-HSDAVFTDNYTRLRKQVAAKAYLQSIKNKRYGGPSSGAPPPS [Agonist P184] | 339 | 0.22 | 0.29 | 0.23 | 324
21 | Hexanoyl-HSDAVFTDNYTRLKKQVAAKKYLQSIKNKRYGGPSSGAPPPS [Agonist P171] | 335 | 0.82 | 1.78 | 5.81 | 174
22 | Hexanoyl-HSDAVFTDNYTRLRK(Ac)QVAAKK(Ac)YLQSIKNKRYGGPSSGAPPPS [Agonist P194] | 626 | 0.13 | 1.11 | 0.28 | 173
23 | Hexanoyl-HSDAVFTDNYTRLRKQVAAKKYVQSIKNKRYGGPSSGAPPPS [Agonist P234] | 248 | 0.16 | 0.69 | 0.33 | 641
24 | Hexanoyl-HSDAVFTDNYTRLRKQVAAIKYLQSIKNKRYGGPSSGAPPPS [Agonist P149] | 773 | 0.41 | 0.29 | 0.61 | 212
